Assay results taken from patent US10626112B2, “Heterocyclic sulfonamide derivative and medicine comprising same” (EA PHARMA CO., LTD., priority 2014, dated 2020).

Target: human TRPA1 (Homo sapiens (Human), UniProt O75762)
Assay: Measurement of TRPA1 antagonist activity (2): as (1), different lot of human TRPA1 expression plasmid
Format: cell-based
Conditions: 293T cells transfected with human TRPA1, allylisothiocyanate 20 μM stimulation, calcium fluorescence, read-out: hTRPA1 IC50
Protocol: Human embryonic kidney-derived 293T cells were cultured in Dulbecco's Modified Eagle Medium containing 10% fetal bovine serum, 10 unit penicillin, and 10 μg streptomycin, plated on a petri dish having a diameter of 10 cm at 3×10^6 cells, and cultured for 24 hr in a CO2 incubator. A reduced serum medium (manufactured by Invitrogen, trade name: OPTI-MEM, 600 μL), a gene transfer reagent (manufactured by Mirus Bio, trade name: Mirus TransIT-293, 18 μL), and human TRPA1 expression plasmid (6 μg) were mixed, the total amount of the mixture was added to the cells on the petri dish to allow for gene transfer. The cells were recovered about for 8 hr later, plated on a poly-D-lysine coated 384 well black/clear bottom plate at 12,000 cells/well, and cultured overnight.
Measurement of Intracellular Calcium Increase
The 384 well plate was recovered, and the medium was removed. A calcium-bonded fluorescent indicator (manufactured by Molecular Device, trade name: Calcium4 Assay Kit, 38 μL) dissolved in assay buffer (1×HBSS, 20 mM HEPES, pH 7.2) was added, and the cells were stained in a CO2 incubator for 1 hr. The cells were taken out at room temperature, stood for not less than 15 min, a test substance (10 μL) was added by a platereader FDSS7000 (Hamamatsu Photonics K.K.) equipped with a 384ch dispenser. After 10 min, allylisothiocyanate (12 μL) was further added at a final concentration of 20 μM, and changes in the relative fluorescence intensity after addition of allylisothiocyanate were measured for 5 min.
Test Substance Preparation
The test substance was dissolved in dimethyl sulfoxide and serially diluted with an assay buffer containing 0.1% bovine serum albumin (1×HBSS, 20 mM HEPES, pH 7.2) to a 4.8-fold concentration of the evaluation concentration. Allylisothiocyanate, which is a known TRPA1 activator, was dissolved in dimethyl sulfoxide to 100 mM, and further diluted 5-fold (100 μM) of the final concentration, like the test substance.
Calculation of Antagonist Activity
Under the test substance-free conditions, the maximum variation range of the fluorescence intensity before and after allylisothiocyanate stimulation was defined to be 100% activity rate, and the variation range before and after buffer stimulation was defined as 0% activity rate. The activity rate on addition of the test substance was determined, and the numerical value obtained by subtracting the activity rate from 100 was defined to be an inhibitory rate. IC50, which is the concentration of the test substance necessary for reaching the 50% inhibitory rate, was calculated from the sigmoid approximate curve by a spreadsheet software Excel-Fit.
Measurement of TRPA1 Antagonist Activity (2)
By a method similar to that in Experimental Example 1-1 except that the lot of human […] expression plasmid is different, the TRPA1 antagonist activity of the test substance was measured.

Chain of human TRPA1 (O75762 whole entry): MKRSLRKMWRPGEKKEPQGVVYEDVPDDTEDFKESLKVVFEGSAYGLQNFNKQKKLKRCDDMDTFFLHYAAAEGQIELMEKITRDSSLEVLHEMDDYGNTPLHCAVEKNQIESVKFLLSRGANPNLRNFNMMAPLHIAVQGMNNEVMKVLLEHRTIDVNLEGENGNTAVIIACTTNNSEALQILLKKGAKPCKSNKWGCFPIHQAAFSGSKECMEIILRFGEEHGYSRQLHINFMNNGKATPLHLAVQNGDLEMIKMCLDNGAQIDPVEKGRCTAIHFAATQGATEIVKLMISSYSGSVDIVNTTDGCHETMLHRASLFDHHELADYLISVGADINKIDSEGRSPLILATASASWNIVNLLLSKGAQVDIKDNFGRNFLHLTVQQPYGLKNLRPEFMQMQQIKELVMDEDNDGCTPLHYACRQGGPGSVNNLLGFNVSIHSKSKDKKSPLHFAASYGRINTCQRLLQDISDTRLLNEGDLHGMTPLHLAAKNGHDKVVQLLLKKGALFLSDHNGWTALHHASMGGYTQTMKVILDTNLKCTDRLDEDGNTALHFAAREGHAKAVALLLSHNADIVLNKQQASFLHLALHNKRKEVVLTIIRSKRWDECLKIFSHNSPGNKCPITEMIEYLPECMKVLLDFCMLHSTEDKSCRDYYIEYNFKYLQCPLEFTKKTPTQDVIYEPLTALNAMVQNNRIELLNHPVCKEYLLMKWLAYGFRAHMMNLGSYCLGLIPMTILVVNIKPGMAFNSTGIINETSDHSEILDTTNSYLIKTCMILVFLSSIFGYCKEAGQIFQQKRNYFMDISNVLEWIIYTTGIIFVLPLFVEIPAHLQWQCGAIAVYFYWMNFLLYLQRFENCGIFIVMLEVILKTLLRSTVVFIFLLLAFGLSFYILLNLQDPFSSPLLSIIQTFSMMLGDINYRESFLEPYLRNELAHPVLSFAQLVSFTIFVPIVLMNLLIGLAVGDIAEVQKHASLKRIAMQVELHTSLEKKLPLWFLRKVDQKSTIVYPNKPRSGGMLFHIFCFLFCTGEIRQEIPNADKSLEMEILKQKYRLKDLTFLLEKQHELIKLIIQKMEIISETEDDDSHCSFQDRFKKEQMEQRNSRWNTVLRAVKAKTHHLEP

| IC50 [nM] | SMILES |
| --- | --- |
| 5.2 | CN(C)c1nc(CNC(=O)[C@@H]2CCCN2S(=O)(=O)c2cc3cc(F)ccc3o2)cc(-c2ccc(C(F)(F)F)cc2)n1 [Example 378, (2S)-N-[[2-(dimethylamino)-6-[4-(trifluoromethyl)phenyl]-pyrimidin-4-yl]methyl]-1-(5-fluorobenzofuran-2-yl)sulfonyl-pyrrolidine-2-carboxamide] |
| 19 | CN(C)c1nc(CNC(=O)[C@@H]2CCN2S(=O)(=O)c2cc3cc(F)ccc3o2)cc(-c2ccc(C(F)(F)F)cc2)n1 [Example 379, (2S)-N-[[2-(dimethylamino)-6-[4-(trifluoromethyl)phenyl]-pyrimidin-4-yl]methyl]-1-(5-fluorobenzofuran-2-yl)sulfonyl-azetidine-2-carboxamide] |
| 3.1 | O=C(NCc1ccc(O)c(-c2ccc(C(F)(F)F)nn2)c1)[C@@H]1CCCN1S(=O)(=O)c1cc2ccccc2o1 [Example 380, (2S)-1-(benzofuran-2-ylsulfonyl)-N-[[4-hydroxy-3-[6-(trifluoromethyl)pyridazin-3-yl]phenyl]methyl]pyrrolidine-2-carboxamide] |
| 20 | C[C@H](NS(=O)(=O)c1cc2cc(F)ccc2o1)C(=O)NCc1ccc(O)c(-c2ccc(C(F)(F)F)nn2)c1 [Example 381] |
| 27 | Nc1nc(CNC(=O)[C@@H]2CCCN2S(=O)(=O)c2cc3cc(F)ccc3o2)cc(-c2ccc(C(F)(F)F)cc2)n1 [Example 382, (2S)-N-[[2-amino-6-[4-(trifluoromethyl)phenyl]-pyrimidin-4-yl]methyl]-1-(5-fluorobenzofuran-2-yl)sulfonyl-pyrrolidine-2-carboxamide] |
| 9.7 | O=C(NCc1ccnc(-c2ccc(C(F)(F)F)cc2O)c1)[C@@H]1CCN1S(=O)(=O)c1cc2cc(F)ccc2o1 [Example 383, (2S)-1-(5-fluorobenzofuran-2-yl)sulfonyl-N-[[2-[2-hydroxy-4-(trifluoromethyl)phenyl]-4-pyridyl]methyl]azetidine-2-carboxamide] |
| 13 | CN(C)c1nc(CNC(=O)[C@@H]2CCN2S(=O)(=O)c2cc3cc(F)ccc3o2)cc(-c2ccc(C(F)(F)F)nc2)n1 [Example 384, (2S)-N-[[2-(dimethylamino)-6-[6-(trifluoromethyl)-3-pyridyl]pyrimidin-4-yl]methyl]-1-(5-fluorobenzofuran-2-yl)sulfonyl-azetidine-2-carboxamide] |
| 13 | O=C(NCc1cc(-c2ccc(C(F)(F)F)cn2)ccn1)[C@@H]1CCN1S(=O)(=O)c1cc2ccccc2o1 [Example 385, (2S)-1-(benzofuran-2-ylsulfonyl)-N-[[4-[5-(trifluoromethyl)-2-pyridyl]-2-pyridyl]methyl]azetidine-2-carboxamide] |
| 6.6 | O=C(NCc1cc(-c2ccc(C(F)(F)F)cc2)ncn1)[C@@H]1CCN1S(=O)(=O)c1cc2ccccc2o1 [Example 386, (2S)-1-(benzofuran-2-ylsulfonyl)-N-[[6-[4-(trifluoromethyl)phenyl]-pyrimidin-4-yl]methyl]azetidine-2-carboxamide] |
| 55 | O=C(NCc1cc(-c2cnc(C(F)(F)F)nc2)ncn1)[C@@H]1CCN1S(=O)(=O)c1cc2cc(F)ccc2o1 [Example 387, (2S)-1-(5-fluorobenzofuran-2-yl)sulfonyl-N-[[6-[2-(trifluoromethyl)pyrimidin-5-yl]pyrimidin-4-yl]methyl]azetidine-2-carboxamide] |
| 2.7 | O=C(NCc1cc(-c2ccc(C(F)(F)F)nc2)ncn1)[C@@H]1CCN1S(=O)(=O)c1cc2cc(F)ccc2o1 [Example 388, (2S)-1-(5-fluorobenzofuran-2-yl)sulfonyl-N-[[6-[6-(trifluoromethyl)-3-pyridyl]pyrimidin-4-yl]methyl]azetidine-2-carboxamide] |
| 11 | O=C(NCc1cc(-c2cnc(C(F)(F)F)nc2)ccn1)[C@@H]1CCN1S(=O)(=O)c1cc2cc(F)ccc2o1 [Example 389, (2S)-1-(5-fluorobenzofuran-2-yl)sulfonyl-N-[[4-[2-(trifluoromethyl)pyrimidin-5-yl]-2-pyridyl]methyl]azetidine-2-carboxamide] |
| 9.3 | O=C(NCc1ccc(O)c(-c2cnc(C(F)(F)F)cn2)c1)[C@@H]1CCN1S(=O)(=O)c1cc2cc(F)ccc2o1 [Example 390, (2S)-1-(5-fluorobenzofuran-2-yl)sulfonyl-N-[[4-hydroxy-3-[5-(trifluoromethyl)pyrazin-2-yl]phenyl]methyl]azetidine-2-carboxamide] |
| 26 | O=C(NCc1cc(-c2ccc(C(F)(F)F)cn2)cnn1)[C@@H]1CCN1S(=O)(=O)c1cc2cc(F)ccc2o1 [Example 391, (2S)-1-(5-fluorobenzofuran-2-yl)sulfonyl-N-[[5-[5-(trifluoromethyl)-2-pyridyl]pyridazin-3-yl]methyl]azetidine-2-carboxamide] |
| 4.6 | O=C(NCc1cccc(-c2cnc(C(F)(F)F)cn2)c1)[C@@H]1CCN1S(=O)(=O)c1cc2cc(F)ccc2o1 [Example 392, (2S)-1-(5-fluorobenzofuran-2-yl)sulfonyl-N-[[3-[5-(trifluoromethyl)pyrazin-2-yl]phenyl]methyl]azetidine-2-carboxamide] |
| 9.1 | O=C(NCc1cc(-c2cnc(C(F)(F)F)cn2)ccn1)[C@@H]1CCN1S(=O)(=O)c1cc2cc(F)ccc2o1 [Example 393, (2S)-1-(5-fluorobenzofuran-2-yl)sulfonyl-N-[[4-[5-(trifluoromethyl)pyrazin-2-yl]-2-pyridyl]methyl]azetidine-2-carboxamide] |
| 11 | O=C(NCc1cc(-c2ncc(C(F)(F)F)cn2)ccn1)[C@@H]1CCN1S(=O)(=O)c1cc2cc(F)ccc2o1 [Example 394, (2S)-1-(5-fluorobenzofuran-2-yl)sulfonyl-N-[[4-[5-(trifluoromethyl)pyrimidin-2-yl]-2-pyridyl]methyl]azetidine-2-carboxamide] |
| 3.2 | O=C(NCc1cc(-c2ccc(OC(F)(F)F)cc2)ncn1)[C@@H]1CCN1S(=O)(=O)c1cc2cc(F)ccc2o1 [Example 395] |
| 7.6 | O=C(NCc1cc(-c2ccc(C(F)(F)F)cn2)cnn1)[C@@H]1CCCN1S(=O)(=O)c1cc2cc(F)ccc2o1 [Example 396, (2S)-1-(5-fluorobenzofuran-2-yl)sulfonyl-N-[[5-[5-(trifluoromethyl)-2-pyridyl]pyridazin-3-yl]methyl]pyrrolidine-2-carboxamide] |
| 6.8 | CN(C)c1nc(CNC(=O)[C@@H]2CCCN2S(=O)(=O)c2cc3cc(F)ccc3o2)cc(-c2ccc(C(F)(F)F)cc2O)n1 [Example 397, (2S)-N-[[2-(dimethylamino)-6-[2-hydroxy-4-(trifluoromethyl)phenyl]-pyrimidin-4-yl]methyl]-1-(5-fluorobenzofuran-2-yl)sulfonyl-pyrrolidine-2-carboxamide] |
| 21 | CN(C)c1nc(CNC(=O)[C@@H]2CCN2S(=O)(=O)c2cc3cc(F)ccc3o2)cc(-c2ccc(C(F)(F)F)cc2O)n1 [Example 398, (2S)-N-[[2-(dimethylamino)-6-[2-hydroxy-4-(trifluoromethyl)phenyl]-pyrimidin-4-yl]methyl]-1-(5-fluorobenzofuran-2-yl)sulfonyl-azetidine-2-carboxamide] |
| 2.5 | O=C(NCc1cccc(-c2cnc(C(F)(F)F)cn2)c1)[C@@H]1CCCN1S(=O)(=O)c1cc2cc(F)ccc2o1 [Example 399, (2S)-1-(5-fluorobenzofuran-2-yl)sulfonyl-N-[[3-[5-(trifluoromethyl)pyrazin-2-yl]phenyl]methyl]pyrrolidine-2-carboxamide] |
